Results on eight compounds are retold here after paper PMC2219262 (The Journal of General Physiology, 1996).

Broadly, the pKa is the pH at which an ionisable group is half protonated.

The target in data set [1] is K+ current (IK), K channels (Doryteuthis opalescens, UniProt Q25376). The class given is cell-based, squid Loligo opalescens.
Another data set deals with Na+ current (INa) (Doryteuthis opalescens, UniProt Q25377). The class given is cell-based, squid Loligo opalescens.
The next data set deals with Ca2+ current (ICa). The class given is cell-based, squid Loligo opalescens.
A short description of another data set: pKa of methadone. The class given is physicochemical. The conditions noted are these: implied by pKa.
For data set [2] the following is noted: ref Kaufman et al., 1975; cited from earlier work.
Another data set has as its system IK in GH3 cells. Type of data set: cell-based, rat. The conditions noted are these: read-out: apparent KD for IK block.
Setting [3] is: Fig. 4: 100 μM, +80 mV, 100K//200K.
The mark [4] stands for this setting: Fig. 12 A: 100 μM, +60 mV, 10K//100K, model C.
[5] abbreviates: Fig. 12 B: 10 °C, 100 μM, +60 mV, 10K//50K.
The mark [6] stands for this setting: Fig. 12 B: 20 °C, 100 μM, +60 mV, 10K//50K.

“And” between values parts separate entries of the source, which are not always exact repeats. Equal entries are not always repeated. “Also recorded” adds a separate entry of the source. Where two headings read alike, the source gives them in different places.

Na+ current (INa), sequence (Q25377 1-1784): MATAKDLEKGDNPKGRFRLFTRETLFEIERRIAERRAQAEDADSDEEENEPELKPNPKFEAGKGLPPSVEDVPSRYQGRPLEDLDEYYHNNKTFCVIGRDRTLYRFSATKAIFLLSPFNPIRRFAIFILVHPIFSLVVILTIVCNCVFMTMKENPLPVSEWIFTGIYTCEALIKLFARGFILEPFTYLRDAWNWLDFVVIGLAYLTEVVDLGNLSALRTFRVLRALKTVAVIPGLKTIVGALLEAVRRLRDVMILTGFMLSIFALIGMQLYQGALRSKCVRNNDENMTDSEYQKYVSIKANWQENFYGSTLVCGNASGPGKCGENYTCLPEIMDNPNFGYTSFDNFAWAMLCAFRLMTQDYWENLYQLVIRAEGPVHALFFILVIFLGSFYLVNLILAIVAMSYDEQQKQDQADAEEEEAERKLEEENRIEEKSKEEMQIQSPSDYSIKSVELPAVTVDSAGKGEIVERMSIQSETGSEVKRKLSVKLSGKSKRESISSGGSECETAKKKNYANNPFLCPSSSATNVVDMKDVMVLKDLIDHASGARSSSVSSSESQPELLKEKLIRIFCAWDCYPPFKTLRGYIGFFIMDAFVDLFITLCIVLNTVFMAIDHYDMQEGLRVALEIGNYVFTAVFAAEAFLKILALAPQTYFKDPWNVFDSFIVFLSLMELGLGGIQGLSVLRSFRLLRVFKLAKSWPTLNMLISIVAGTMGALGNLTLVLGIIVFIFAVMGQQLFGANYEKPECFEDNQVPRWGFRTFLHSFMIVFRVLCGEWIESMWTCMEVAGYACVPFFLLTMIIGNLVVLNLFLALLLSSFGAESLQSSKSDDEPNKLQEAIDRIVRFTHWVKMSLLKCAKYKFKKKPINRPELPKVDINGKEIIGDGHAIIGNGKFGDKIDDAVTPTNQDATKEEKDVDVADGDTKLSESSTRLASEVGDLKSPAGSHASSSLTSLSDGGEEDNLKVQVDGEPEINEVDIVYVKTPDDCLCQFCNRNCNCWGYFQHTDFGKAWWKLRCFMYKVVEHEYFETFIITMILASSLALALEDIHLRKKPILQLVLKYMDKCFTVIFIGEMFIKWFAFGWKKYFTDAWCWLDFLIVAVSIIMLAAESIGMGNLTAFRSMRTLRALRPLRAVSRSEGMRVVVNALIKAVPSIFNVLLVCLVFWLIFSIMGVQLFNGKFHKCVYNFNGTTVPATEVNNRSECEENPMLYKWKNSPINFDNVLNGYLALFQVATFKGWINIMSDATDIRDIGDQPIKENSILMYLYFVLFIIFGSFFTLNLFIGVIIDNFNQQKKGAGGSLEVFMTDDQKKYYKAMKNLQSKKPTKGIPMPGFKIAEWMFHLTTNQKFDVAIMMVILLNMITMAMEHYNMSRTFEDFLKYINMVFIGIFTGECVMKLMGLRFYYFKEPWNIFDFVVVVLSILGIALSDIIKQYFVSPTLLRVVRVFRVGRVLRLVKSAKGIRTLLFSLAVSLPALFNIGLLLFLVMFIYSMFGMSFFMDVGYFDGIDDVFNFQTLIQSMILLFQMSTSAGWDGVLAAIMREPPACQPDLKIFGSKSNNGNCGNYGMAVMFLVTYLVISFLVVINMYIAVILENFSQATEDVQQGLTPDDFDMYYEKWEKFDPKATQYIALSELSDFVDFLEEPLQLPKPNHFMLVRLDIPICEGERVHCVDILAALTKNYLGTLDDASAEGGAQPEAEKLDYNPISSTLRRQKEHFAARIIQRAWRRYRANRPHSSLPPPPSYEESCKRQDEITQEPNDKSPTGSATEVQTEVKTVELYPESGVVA
K+ current (IK), K channels, sequence (Q25376 1-488): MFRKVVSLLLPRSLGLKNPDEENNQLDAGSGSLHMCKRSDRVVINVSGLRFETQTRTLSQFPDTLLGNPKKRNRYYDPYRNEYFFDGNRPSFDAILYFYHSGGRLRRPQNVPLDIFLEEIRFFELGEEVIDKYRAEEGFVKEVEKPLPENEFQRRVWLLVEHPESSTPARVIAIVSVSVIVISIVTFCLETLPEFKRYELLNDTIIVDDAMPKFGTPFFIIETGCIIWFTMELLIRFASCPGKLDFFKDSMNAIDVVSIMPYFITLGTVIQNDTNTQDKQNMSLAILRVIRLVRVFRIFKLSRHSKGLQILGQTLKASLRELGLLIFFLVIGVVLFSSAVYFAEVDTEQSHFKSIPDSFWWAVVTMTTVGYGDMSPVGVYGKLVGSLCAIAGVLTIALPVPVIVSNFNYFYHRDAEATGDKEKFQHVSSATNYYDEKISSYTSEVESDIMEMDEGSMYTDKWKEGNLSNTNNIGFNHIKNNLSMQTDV

In the case of `CCC(=O)C(CC(C)[N+](C)(C)C)(c1ccccc1)c1ccccc1.[I-]` (centres unmarked) [N-methyl-methadone], the “effect on IK when applied externally” value in data set [1] (1 mM external) is recorded as “without effect; also recorded: no effect”. In addition, the “effect of changes in external pH on IK block” value in data set [1] (internally applied, data not shown) was “do not affect”. For the same compound, the “effect on INa when applied externally” value on Na+ current (INa) (1 mM external) is given as “no effect”. Moreover, in the data set with Ca2+ current (ICa) (1 mM external), the “effect on ICa when applied externally” value is listed as “no effect”.
Regarding `CCC(=O)C(CC(C)N(C)C)(c1ccccc1)c1ccccc1` (centres unmarked) [methadone], the “ICa block at small depolarizations” value in the data set on Ca2+ current (ICa) (-10 and -20 mV, 200 and 500 μM methadone) is reported as “Little or no block”. In the data set “pKa of methadone”, the “fraction of drug molecules charged at physiological pH” value is greater than 99%. Besides, in data set [2], the pKa is 9.64.
As to `CN1CC[C@]23c4c5ccc(O)c4O[C@H]2[C@@H](O)C=C[C@H]3[C@H]1C5` [morphine], the “effect on IK” value in data set [1] (350 μM, +30 mV) is reported as “no detectable effect”. In addition, the “effect on INa” value on Na+ current (INa) (350 μM, data not shown) is “no detectable effect”. Also, in the data set with Ca2+ current (ICa) (350 μM, data not shown), the “effect on ICa” value was “no detectable effect”.
For the compound `CCC(=O)C(C[C@@H](C)N(C)C)(c1ccccc1)c1ccccc1` [(-)methadone], the “factor of increase of rate of block (K) from 10 to 20 °C” value in data set [1] was 2.1. For the same compound, the “steady state IK as % of control” value in data set [1] (100 μM, 25-ms depolarization to +80 mV, 100K//200K) is given as 27%. In addition, the “rate of block (K)” value in data set [1] (setting [3]) is given as 2.6 ms-1 mM-1; in data set [1] (setting [4]), 2.2 ms-1 mM-1; in data set [1] (setting [5]), 1.5 ms-1 mM-1; in data set [1] (setting [6]), 3.2 ms-1 mM-1. In addition, the “rate of unblock (L)” value in data set [1] (setting [3]) was 0.096 ms-1; in data set [1] (setting [4]), 0.062 ms-1; in data set [1] (setting [5]), 0.060 ms-1; in data set [1] (setting [6]) it was 0.084 ms-1.
Regarding `C=CCN1CC[C@]23c4c5ccc(O)c4O[C@H]2C(=O)CC[C@@]3(O)[C@H]1C5` [naloxone], the “effect on the ability of methadone to block IK” value in data set [1] (data not shown) was “did not prevent”.
(±)methadone: at Na+ current (INa) (50 μM, repetitive depolarization to +10 mV at 4 Hz), the “use-dependent effect on peak INa” value is on record as “no detectable effect”. For the same compound, the “use-dependent reduction in peak INa amplitude” value at Na+ current (INa) (50 μM, repetitive depolarization to +70 mV, 5-ms pulses at 4 Hz, Hp -80 mV) came out at 20%.
On to `CCC(=O)C(C[C@H](C)N(C)C)(c1ccccc1)c1ccccc1` [(+)methadone], for which, in data set [1] (setting [4]), the “rate of block (K)” value is 2.3 ms-1 mM-1 and the “rate of unblock (L)” value was 0.142 ms-1.
With `CCC(=O)O[C@](Cc1ccccc1)(c1ccccc1)[C@H](C)CN(C)C` [propoxyphene], in the data set with IK in GH3 cells, the Kd is 31 µM and ~30 µM.
